Measured values from publication PMC9283466, “In silico identification of two peptides with antibacterial activity against multidrug-resistant Staphylococcus aureus” (NPJ Biofilms and Microbiomes, 2022).
Values after ≈ are worked out from the molar mass of the structure shown. Bridge positions count the residues as written; N and C are the ends. Peptide text beside a SMILES is read from it.

How the values were obtained:
E. coli K12 = assay: microbe, parasite or virus in culture; assay type: cell-based, Escherichia coli; details: K12
Description: (§1) To determine the antimicrobial activity of the new antimicrobial peptides, HG2 and HG4, their minimum inhibitory concentrations (MICs) were determined by broth microdilution method[51] in cation adjusted Mueller Hinton broth (MHB) following the International Organisation for Standardisation (ISO) 20776-1 standard for MIC testing using a final bacterial inoculum of 5 × 10^5 CFU/ml[52]. […] The peptides dissolved in sterile distilled water were added to bacteria culture and incubated overnight at appropriate conditions. The MICs of the peptides and comparator antibiotics were recorded after 18–24 h. The minimum bactericidal concentrations (MBCs) were also determined and were taken as the lowest concentration of the antimicrobial that prevented the growth of bacterial cells after the subculture of cells (from MIC treatment) onto antibiotic-free media.

[1] = Peptide-lipid interaction and insertion, lipid monolayer; assay type: binding, Staphylococcus aureus; details: MRSA extract; initial surface pressure 30+/-0.5 mN/m
Description: (§2) Peptide–lipid interaction was measured using a lipid monolayer formed at the air:water interface with total lipid extracts and pure lipids. Total lipids were extracted from overnight cultures of MRSA or human erythrocytes using the Folch extraction procedure[14],[40]. Extracted total lipids were dried, re-solubilised in chloroform:methanol (2:1, v/v) and stored at −20 °C under nitrogen. […] The variation of the surface pressure caused by peptide insertion was then continuously monitored using a fully automated microtensiometer (µTROUGH SX, Kibron Inc, Finland) until it reached equilibrium (maximal surface pressure increase is usually obtained after 15–25 min). […] In other experiments, the critical pressure of insertion of HG2 or HG4 in the total lipid extracts and pure lipids was measured as follows[14],[56]. Briefly, in these experiments, the initial pressure of the lipid monolayer was set up at different values (between 10 and 30 mN/m) and the variation of pressure caused by the injection of the peptide was measured. […] All experiments were carried out in a controlled atmosphere at 20 ± 1 °C and data were analyzed using the Firmware 2.5 programme (Kibron Inc.). The accuracy of the system under our experimental conditions was determined to be ±0.25 mN/m for surface pressure measurements.

[2] = tested on: eLUCidate Raw 264.7 NF-kB reporter cell line
[3] = Peptide-lipid interaction and insertion, lipid monolayer; assay type: binding; details: for Speed of insertion: initial surface pressure 30+/-0.5 mN/m; for Critical pressure of insertion πc: peptide 1 µg/mL
Description: (§3) Peptide–lipid interaction was measured using a lipid monolayer formed at the air:water interface with total lipid extracts and pure lipids. Total lipids were extracted from overnight cultures of MRSA or human erythrocytes using the Folch extraction procedure[14],[40]. Extracted total lipids were dried, re-solubilised in chloroform:methanol (2:1, v/v) and stored at −20 °C under nitrogen. Pure prokaryotic and eukaryotic lipids used were: cardiolipin, POPC (1-palmitoyl-2-oleoyl-glycero-3-phosphocholine), POPE (1-palmitoyl-2-oleoyl-sn-glycero-3-phosphoethanolamine) and POPG (1-palmitoyl-2-oleoyl-sn-glycero-3-phospho-(1’-rac-glycerol) (Avanti Polar Lipid). LTA (Lipoteichoic acid from S. aureus) and LPS (lipopolysaccharide from E. coli) (Invitrogen, UK) were also tested. Pure lipids were reconstituted in chloroform:methanol (2:1 v/v) at 1 mg/ml and stored at −20 °C under nitrogen. For peptide–lipid interaction assay, lipid monolayers at the air:water interface were formed by spreading total lipid extract or pure lipids at the surface of 800 µl of sterile PBS using a 50 µl Hamilton’s syringe. Lipids were added until the surface pressure reached the desired value. After 5–10 min of incubation allowing the evaporation of the solvent and stabilisation of the initial surface pressure, 8 µl of HG2 or HG4 diluted in sterile PBS at 100 µg/ml were injected into the 800 µl sub-phase of PBS under the lipid monolayer (pH 7.4, volume 800 µl) using a 10 µl Hamilton’s syringe giving a final concentration of peptide of 1 µg/ml, as preliminary experiments had shown that this concentration was optimal. The variation of the surface pressure caused by peptide insertion was then continuously monitored using a fully automated microtensiometer (µTROUGH SX, Kibron Inc, Finland) until it reached equilibrium (maximal surface pressure increase is usually obtained after 15–25 min). To reflect physiological situations, the initial surface pressure was fixed at 30 ± 0.5 mN/m in some experiments as this value corresponds to a lipid packing density theoretically equivalent to that of the outer leaflet of the eukaryotic and prokaryotic cell membrane. In other experiments, the critical pressure of insertion of HG2 or HG4 in the total lipid extracts and pure lipids was measured as follows[14],[56]. Briefly, in these experiments, the initial pressure of the lipid monolayer was set up at different values (between 10 and 30 mN/m) and the variation of pressure caused by the injection of the peptide was measured. […] All experiments were carried out in a controlled atmosphere at 20 ± 1 °C and data were analyzed using the Firmware 2.5 programme (Kibron Inc.). The accuracy of the system under our experimental conditions was determined to be ±0.25 mN/m for surface pressure measurements.

[4] = Pure lipid preference order from critical pressure of insertion; assay type: binding; details: pure bacterial and eukaryotic lipids
Description: as §2

[5] = Peptide-lipid interaction and insertion, lipid monolayer; assay type: binding, human; details: Erythrocyte extract; initial surface pressure 30+/-0.5 mN/m
Description: as §2

[6] = as above; assay type: binding, S. aureus; details: LTA; for Speed of insertion: initial surface pressure 30+/-0.5 mN/m; for Critical pressure of insertion πc: peptide 1 µg/mL
Description: as §3

G. mellonella larvae = tested on: G. mellonella larvae; parameters: species or system Galleria mellonella; details: in vivo
Description: All procedures of larvae rearing, injection and G. mellonella killing assays were conducted using validated methods. In each assay, ten larvae weighing between 280–300 mg each were randomly selected. Larvae with the previous melanisation of the cuticle were excluded from the experiments. All experiments were designed in at least four experimental and biological replicates.
Firstly, we evaluated the putative toxic effect of the peptides HG2 and HG4 in G. mellonella. […] After injection with peptides, the larvae were maintained at 37 °C in the dark. Phenotypic aspects such as melanisation and mobility of the larvae as well as survival were monitored every 24 for 96 h. Larvae not inoculated with AMPs were used as controls.

MRSA USA300 cells = assay: Time-kill kinetics; assay type: cell-based, Staphylococcus aureus; details: 3x MIC; for reduction in viable cells (time-kill): within the first 10 min, logarithmic-phase MRSA USA300; for time to complete cell death: no recovery observed after 24 h
Description: The bactericidal activity of HG2, HG4 and comparator antimicrobial compounds was assessed using exponential-phase cultures[14] of MRSA USA300 grown in MHB (1 × 10^6-8 CFU/ml). […] Samples were taken at different time points, serially diluted and inoculated onto MH agar plates using the spread plate technique. After overnight incubation, the colony-forming units per millilitre of cell culture (CFU/ml) was calculated. Experiments were performed in quadruplicates.

A. baumannii 515722 = assay: microbe, parasite or virus in culture; assay type: cell-based, Acinetobacter baumannii; details: 515722
Description: as §1

[7] = tested on: A. baumannii (IMI, MER resistant; strain ID not given); assay: microbe, parasite or virus in culture; assay type: cell-based, Acinetobacter baumannii; details: MER resistant, no strain ID printed
Description: as §1

A. baumannii 515785 = assay: microbe, parasite or virus in culture; assay type: cell-based, Acinetobacter baumannii; details: 515785
Description: as §1

A. baumannii 515908 = assay: microbe, parasite or virus in culture; assay type: cell-based, Acinetobacter baumannii; details: 515908
Description: as §1

Row | SMILES | MIC (E. coli K12) | Speed of insertion [1] | toxicity against reporter cell line (resazurin assay) [2] | Speed of insertion ([3]; Cardiolipin) | Critical pressure of insertion πc ([3]; Cardiolipin) | Speed of insertion ([3]; PC) | Critical pressure of insertion πc ([3]; PC) | Speed of insertion ([3]; PE) | Critical pressure of insertion πc ([3]; PE) | Speed of insertion ([3]; PG) | Critical pressure of insertion πc ([3]; PG) | order of preference for pure lipids (critical pressure of insertion) [4] | Speed of insertion [5] | Speed of insertion [6] | Critical pressure of insertion πc [6] | larvae survival rate, uninfected larvae (G. mellonella larvae) | toxic effect in G. mellonella (G. mellonella larvae) | reduction in viable cells (time-kill) (MRSA USA300 cells) | time to complete cell death (MRSA USA300 cells) | MIC (A. baumannii 515722) | further results
1 | CC[C@H](C)[C@H](NC(=O)[C@H](CC(C)C)NC(=O)[C@H](CC(C)C)NC(=O)[C@H](CC(C)C)NC(=O)[C@H](CCCCN)NC(=O)[C@H](CCCCN)NC(=O)[C@@H](N)CCSC)C(=O)N[C@@H](CC(C)C)C(=O)N[C@@H](Cc1ccccc1)C(=O)N[C@H]1CSSC[C@@H](C(=O)N[C@@H](CCCCN)C(=O)N[C@@H](CCCCN)C(=O)N[C@@H](C)C(=O)N2CCC[C@H]2C(N)=O)NC(=O)CNC(=O)[C@H](C)NC(=O)[C@H](CC(C)C)NC(=O)[C@H](C)NC(=O)[C@H](CC(C)C)NC(=O)[C@H](C)NC(=O)[C@H](CC(C)C)NC1=O [HG2] (H-MKKLLLILFCLALALAGCKKAP-NH2; disulfide 10-18; N-terminus assumed) | 256 µg/mL (≈ 109 µM) | 3.36 mN/m/10 sec | no toxicity | 4.74 mN/m/10 sec | 41.30 mN/m | 8.58 mN/m/10 sec | 62.79 mN/m | 1.89 mN/m/10 sec | 39.49 mN/m | 3.70 mN/m/10 sec | 51.19 mN/m | PC > PG > LTA > Cardio > PE > LPS | 1.13 mN/m/10 sec | 0.80 mN/m/10 sec | 47.81 mN/m | 100% | no toxic effect | > 3 log10 CFU/ml | ≤ 10 min | 16 µg/mL (≈ 6.79 µM) | MIC [7]: 128 µg/mL (≈ 54.3 µM); MIC (A. baumannii 515785): 256 µg/mL (≈ 109 µM); MIC (A. baumannii 515908): 32 µg/mL (≈ 13.6 µM)
2 | CC[C@H](C)[C@H](NC(=O)[C@H](CC(C)C)NC(=O)[C@H](CC(C)C)NC(=O)[C@H](C)NC(=O)CNC(=O)CNC(=O)[C@@H](NC(=O)[C@@H](NC(=O)[C@H](CC(C)C)NC(=O)[C@H](C)NC(=O)[C@H](CC(C)C)NC(=O)CNC(=O)[C@H](CC(C)C)NC(=O)[C@@H](N)C(C)C)[C@@H](C)CC)C(C)C)C(=O)N[C@@H](CCCCN)C(=O)N[C@@H](CCCCN)C(=O)N[C@@H](CCCCN)C(=O)N[C@@H](CCC(N)=O)C(=O)N[C@@H](C)C(=O)N[C@@H](CCCCN)C(=O)N[C@@H](CO)C(N)=O [HG4] (H-VLGLALIVGGALLIKKKQAKS-NH2; N-terminus and C-terminus assumed) | 512 µg/mL (≈ 242 µM) | 1.69 mN/m/10 sec | no toxicity | 2.44 mN/m/10 sec | 46.49 mN/m | 0.50 mN/m/10 sec | 28.8 mN/m | 0.20 mN/m/10 sec | 33.9 mN/m | 2.48 mN/m/10 sec | 47.55 mN/m | PG > cardiolipin > LTA > LPS > PE > PC | 1.20 mN/m/10 sec | 0.39 mN/m/10 sec | 40.04 mN/m | 100% | no toxic effect | > 6 log10 CFU/ml | ≤ 10 min | 32 µg/mL (≈ 15.1 µM) | MIC [7]: 64 µg/mL (≈ 30.2 µM); MIC (A. baumannii 515785): 128 µg/mL (≈ 60.4 µM); MIC (A. baumannii 515908): 64 µg/mL (≈ 30.2 µM)
